System: 439559-082-T-J2-PDC spheroids viability
Assay: Anticancer human tumor 439559-082-T-J2-PDC patient-derived colon adenocarcinoma cell line growth inhibition [GQUAD]
Settings: for IC50: curve of first compound; for viability, T/C: stronger effect = lower value
Method in brief: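 Viability of tumor cells grown as complex spheroids with endothelial and stromal cells, exposed to drug combinations. Top concentration at or near clinical Cmax (else 10 microM), diluted in half-log increments.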

[1] = second compound 0.0316 µM, first compound 0.0316 µM
[2] = second compound 0.0316 µM, first compound 0.1 µM
[3] = second compound 0.0316 µM, first compound 0.316 µM
[4] = second compound 0.0316 µM, first compound 1 µM
[5] = second compound 0.0316 µM, first compound 3.16 µM
[6] = second compound 0.0316 µM, first compound 10 µM
[7] = second compound 0.1 µM, first compound 0.0316 µM
[8] = second compound 0.1 µM, first compound 0.1 µM
[9] = second compound 0.1 µM, first compound 0.316 µM
[10] = second compound 0.1 µM, first compound 1 µM
[11] = second compound 0.1 µM, first compound 3.16 µM
[12] = second compound 0.1 µM, first compound 10 µM
[13] = second compound 0.316 µM, first compound 0.0316 µM
[14] = second compound 0.316 µM, first compound 0.1 µM
[15] = second compound 0.316 µM, first compound 0.316 µM
[16] = second compound 0.316 µM, first compound 1 µM
[17] = second compound 0.316 µM, first compound 3.16 µM
[18] = second compound 0.316 µM, first compound 10 µM
[19] = second compound 1 µM, first compound 0.0316 µM
[20] = second compound 1 µM, first compound 0.1 µM
[21] = second compound 1 µM, first compound 0.316 µM
[22] = second compound 1 µM, first compound 1 µM
[23] = second compound 1 µM, first compound 3.16 µM
[24] = second compound 1 µM, first compound 10 µM
[25] = second compound 3.16 µM, first compound 0.0316 µM
[26] = second compound 3.16 µM, first compound 0.1 µM
[27] = second compound 3.16 µM, first compound 0.316 µM
[28] = second compound 3.16 µM, first compound 1 µM
[29] = second compound 3.16 µM, first compound 3.16 µM
[30] = second compound 3.16 µM, first compound 10 µM
[31] = second compound 10 µM, first compound 0.0316 µM
[32] = second compound 10 µM, first compound 0.1 µM
[33] = second compound 10 µM, first compound 0.316 µM
[34] = second compound 10 µM, first compound 1 µM
[35] = second compound 10 µM, first compound 3.16 µM
[36] = second compound 10 µM, first compound 10 µM
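Further: spheroids exposed to the agents for 7 days before readout.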
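Wherever viability, T/C is given: percent of luminescence signal in DMSO vehicle wells taken as 100% viability.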

C=CC(=O)N1CCN(c2nc(=O)n(-c3c(C)ccnc3C(C)C)c3nc(-c4c(O)cccc4F)c(F)cc23)C(C)C1 (stereo unspecified) + Cc1cnc(CNC(=O)c2c(=O)c3ccc(N4CCCN(C)CC4)nc3n3c2sc2ccccc23)cn1
IC50 (second compound 0.0316 µM): > 10 µM
IC50 (second compound 0.1 µM): > 10 µM
IC50 (second compound 0.316 µM): > 10 µM
IC50 (second compound 1 µM): > 10 µM
IC50 (second compound 3.16 µM): > 10 µM
IC50 (second compound 10 µM): > 10 µM
viability, T/C [1]: 116%
viability, T/C [2]: 95.1%
viability, T/C [3]: 103%
viability, T/C [4]: 110%
viability, T/C [5]: 95.6%
viability, T/C [6]: 111%
viability, T/C [7]: 99.3%
viability, T/C [8]: 99.1%
viability, T/C [9]: 87.3%
viability, T/C [10]: 87.9%
viability, T/C [11]: 93%
viability, T/C [12]: 93.2%
viability, T/C [13]: 95.2%
viability, T/C [14]: 92.3%
viability, T/C [15]: 84.9%
viability, T/C [16]: 91.2%
viability, T/C [17]: 91.1%
viability, T/C [18]: 93%
viability, T/C [19]: 73.7%
viability, T/C [20]: 83%
viability, T/C [21]: 76.1%
viability, T/C [22]: 75.4%
viability, T/C [23]: 87.9%
viability, T/C [24]: 75.9%
viability, T/C [25]: 76.9%
viability, T/C [26]: 73%
viability, T/C [27]: 71.5%
viability, T/C [28]: 71.1%
viability, T/C [29]: 78%
viability, T/C [30]: 72.9%
viability, T/C [31]: 59.2%
viability, T/C [32]: 74.7%
viability, T/C [33]: 75.8%
viability, T/C [34]: 76.2%
viability, T/C [35]: 77.1%
viability, T/C [36]: 72.6%

Cc1cccc(N(C)C(=O)C2C(O)CCN2c2nc(C)cc(C(F)(F)F)c2C#N)c1 (stereo unspecified) + Cc1cnc(CNC(=O)c2c(=O)c3ccc(N4CCCN(C)CC4)nc3n3c2sc2ccccc23)cn1
IC50 (second compound 0.0316 µM): > 10 µM
IC50 (second compound 0.1 µM): > 10 µM
IC50 (second compound 0.316 µM): > 10 µM
IC50 (second compound 1 µM): > 10 µM
IC50 (second compound 3.16 µM): > 10 µM
IC50 (second compound 10 µM): > 10 µM
viability, T/C [1]: 101%
viability, T/C [2]: 95.6%
viability, T/C [3]: 82.5%
viability, T/C [4]: 99%
viability, T/C [5]: 95.2%
viability, T/C [6]: 101%
viability, T/C [7]: 117%
viability, T/C [8]: 93.5%
viability, T/C [9]: 90.2%
viability, T/C [10]: 85.4%
viability, T/C [11]: 93.3%
viability, T/C [12]: 92.6%
viability, T/C [13]: 90.8%
viability, T/C [14]: 86.3%
viability, T/C [15]: 79.3%
viability, T/C [16]: 82.2%
viability, T/C [17]: 92.2%
viability, T/C [18]: 84.3%
viability, T/C [19]: 83.1%
viability, T/C [20]: 81.2%
viability, T/C [21]: 74.2%
viability, T/C [22]: 76.3%
viability, T/C [23]: 80.5%
viability, T/C [24]: 74.8%
viability, T/C [25]: 73.4%
viability, T/C [26]: 72.1%
viability, T/C [27]: 71.9%
viability, T/C [28]: 69.3%
viability, T/C [29]: 72.7%
viability, T/C [30]: 66.3%
viability, T/C [31]: 72.1%
viability, T/C [32]: 70.2%
viability, T/C [33]: 68.5%
viability, T/C [34]: 67.7%
viability, T/C [35]: 72.5%
viability, T/C [36]: 63%

O=C(c1cc(Cc2n[nH]c(=O)c3ccccc23)ccc1F)N1CCN(C(=O)C2CC2)CC1 + Cc1cnc(CNC(=O)c2c(=O)c3ccc(N4CCCN(C)CC4)nc3n3c2sc2ccccc23)cn1
IC50 (second compound 0.0316 µM): > 10 µM
IC50 (second compound 0.1 µM): > 10 µM
IC50 (second compound 0.316 µM): > 10 µM
IC50 (second compound 1 µM): > 10 µM
IC50 (second compound 3.16 µM): > 10 µM
IC50 (second compound 10 µM): > 10 µM
viability, T/C [1]: 94%
viability, T/C [2]: 99.1%
viability, T/C [3]: 97.3%
viability, T/C [4]: 94%
viability, T/C [5]: 96.8%
viability, T/C [6]: 98.2%
viability, T/C [7]: 97%
viability, T/C [8]: 87.7%
viability, T/C [9]: 88.4%
viability, T/C [10]: 89.5%
viability, T/C [11]: 101%
viability, T/C [12]: 91.9%
viability, T/C [13]: 90.6%
viability, T/C [14]: 93.2%
viability, T/C [15]: 84.1%
viability, T/C [16]: 85.5%
viability, T/C [17]: 85.7%
viability, T/C [18]: 78.8%
viability, T/C [19]: 82.8%
viability, T/C [20]: 75%
viability, T/C [21]: 72.5%
viability, T/C [22]: 73.1%
viability, T/C [23]: 89.7%
viability, T/C [24]: 81.7%
viability, T/C [25]: 75.5%
viability, T/C [26]: 62.9%
viability, T/C [27]: 68.8%
viability, T/C [28]: 73.8%
viability, T/C [29]: 74.9%
viability, T/C [30]: 68.5%
viability, T/C [31]: 68.3%
viability, T/C [32]: 71.4%
viability, T/C [33]: 69%
viability, T/C [34]: 68.8%
viability, T/C [35]: 71.9%
viability, T/C [36]: 61.8%
